{"source": "paper PMC9861180", "about": "“Nintedanib-αVβ6 Integrin Ligand Conjugates Reduce TGFβ-Induced EMT in Human Non-Small Cell Lung Cancer” (International Journal of Molecular Sciences, 2023)", "key": {"A549 cells [1]": {"test_system": "A549 cells", "assay": "Inhibition of A549 cell adhesion to fibronectin", "type": "cell-based, human", "experimental": "(§1) To verify whether conjugates 1–3 were able to bind the integrin receptor efficiently and compete with the receptor’s natural ligand (fibronectin) for the binding site, we performed an inhibition of adhesion assay. In this assay, the biological effects of the three conjugated compounds were compared to the inhibitory ability of the unconjugated ligand 4. Inhibition of A549 and H1975 cell adhesion to fibronectin was determined in both untreated and TGFβ-treated cells. The assay was carried out with increasing concentrations of compounds 1–3 and unconjugated cyclic peptidomimetic 4. […]\n(§2) Figure 3 Inhibition of A549 (A,B) and H1975 (C,D) cell adhesion to FN (10 μg/mL) in the presence of compounds 1–3, or c(AmpLRGDL) 4 (2 h). […] The inhibitory activity was calculated as the percentage of cell adhesion to FN in untreated cells and was expressed as mean ± SEM. […]\n(§3) 96-well plates were coated with fibronectin (10 µg/mL) (sc-29011 SantaCruz, D.B.A., Milano, Italia) by overnight incubation at 4 °C. […] Next, A549 cells were washed by centrifugation with PBS, counted, and suspended in serum-free medium at 0.6 × 10^6 cells/mL. […] After 2 h of incubation at […], cells were permeabilized with 50 µL of DMSO (C6164, Sigma-Aldrich Merk Life Science S.r.l. Milano, Italy) and plates were examined at 550 nm in a counter BioRad (550 Microplate Reader, BioRad, Milano, Italy). […]"}, "H1975 cells": {"test_system": "H1975 cells", "assay": "Inhibition of H1975 cell adhesion to fibronectin", "type": "cell-based, human", "conditions": "untreated and TGFβ-treated, increasing concentrations", "experimental": "as §1, §2, §3"}, "A549 cells [2]": {"test_system": "A549 cells", "assay": "Inhibition of A549 cell adhesion to vitronectin", "type": "cell-based, human", "conditions": "A549 cells and TGFβ-treated A549 cells", "experimental": "The highest levels of inhibition in A549 cells were registered with compounds 1 and 2, which were able to inhibit more than 50% adhesion in TGFβ-treated cells even at concentrations of 1 μM, a percentage that raised to 70% when these compounds were tested at 5 μM. […] Moreover, high levels of inhibition were registered in H1975 cells with compounds 1–3 that reached a minimum of 50% inhibition of adhesion in TGFβ-treated cells at 1 μM. These percentages increased to 70% when the compounds were tested at 5 μM. […] As already mentioned, the expression of αvβ3 integrins in A549 cells was reduced after exposure to TGFβ. Since αvβ3 integrins are one of the most avid receptors for vitronectin (VN), we investigated whether compounds 1–4 were able to inhibit A549 cell adhesion to VN. We discovered that, in A549 cells and in TGFβ-treated A549 cells, cell adhesion to vitronectin was not inhibited by the three different conjugated compounds nor by compound 4 (Figure S2E); this lack of efficacy is probably due to the lower binding affinity of the integrin ligand towards the αvβ3 integrin receptors.\n2. […]\nFigure S2. […] The inhibitory activity was calculated as the percentage of cell adhesion to VN in untreated cells and was expressed as means ± SEM. […]"}, "[3]": {"test_system": "α-smooth muscle actin (α-SMA)", "assay": "α-smooth muscle actin protein expression, Western blot", "type": "cell-based, human", "conditions": "TGFβ-treated A549 cells, 5 μM, 24 h", "procedure": "Data are expressed as means ± SEM of fold increment compared to untreated cells normalized to α-tubulin.\nWestern blot analysis was performed on whole-cell lysates of A549 cells, exposed for 48 h to TGFβ treatment and subsequently exposed to 5 µM concentrations of different compounds. After 24 h incubation, media were rapidly removed and cell monolayers were lysed as previously described in RIPA lysis buffer, with the addition of proteinase inhibitor cocktail (04693124001 Roche Merk Life Science S.r.l., Milano, Italy) for 30 min in ice [35]. Protein content was quantified, and forty-fifty micrograms of total proteins were separated on Bolt® Bis-Tris Plus gels 4–12% (Life Technologies, Monza, Italy). Fractionated proteins were transferred from the gel to a PVDF nitrocellulose membrane using iBlot 2 system (Life Technologies, Monza, Italy). Membranes were blocked for 5 min at room temperature, with EveryBlot Biorad blocking buffer (Life Technologies, Monza, Italy). […] The protein bands were analyzed by the Odyssey Infrared Imaging System (Lycor Bioscience) using software for protein quantification. […]"}, "[4]": {"test_system": "tumor spheroids of TGFβ-treated A549 cells and murine L929 fibroblasts", "assay": "Inhibition of 3D tumor spheroid growth", "type": "cell-based, human", "conditions": "5 µM, 72 h, vs untreated spheroids", "procedure": "Heterogeneous spheroids of tumor cells and fibroblasts were generated using the hanging drop technique to mimic the complex three-dimensional environment of tumor tissues. […] Next, the fluorescence intensities associated with each cell population were analyzed as previously described.\nHanging drop tumor spheroids were prepared starting from 1:1 mixed cell population (1000 cells/25μL) of TGF𝛽-treated A549 cells and murine L929 fibroblasts. […] (C) Quantitative analysis of inhibition of 3D growth and (D) 3D spheroid internalization of the compounds after 72 h exposure. Data are representative of three independent experiments (n = 6) and expressed as means ± SEM. * p < 0.05 vs. untreated spheroids.\nA549 cells, exposed for 48 h to TGFβ treatment, were mixed in a 1:1 ratio with murine L929 fibroblast (40,000/mL) in order to obtain 3D multicellular tumor spheroids (MCTS) resembling cellular heterogenicity of the neoplastic lesion. […] After one week, multicellular tumor spheroids were completely formed. Tumor spheroids were next used in different experimental procedures. […] For 3D growth inhibition, spheroids were placed on 2% agarose coated dishes in complete medium containing the different treatments at 5 µM concentration. Spheroid areas were analysed and compared to time 0 and used to evaluate the inhibition of 3D growth (yellow lines). Images of all spheroids were taken daily using the EVOS XL Core Imaging System with a 10x objective (Thermofisher Scientific, Waltham, MA, USA ). All images were analysed using the open-source software ImageJ (1.52a, National Institutes of Health, Bethesda, MD, USA)."}, "[5]": {"test_system": "tumor spheroids of TGFβ-treated A549 cells and murine L929 fibroblasts", "assay": "Tumor spheroid 2D flat surface migration and growth", "type": "cell-based, human", "conditions": "5 µM, fibronectin-coated flat surface", "procedure": "Heterogeneous spheroids of tumor cells and fibroblasts were also used to evaluate the ability of the compounds to inhibit 2D flat surface migration and growth once the spheroids were allowed to attach to a suitable surface (Figure 8).\nHanging drop tumor spheroids were allowed to spread on a 2D fibronectin-coated flat surface. […] Data are representative of three independent experiments (n = 6) and expressed as means ± SEM. * p < 0.05 vs. untreated spheroids.\nA549 cells, exposed for 48 h to TGFβ treatment, were mixed in a 1:1 ratio with murine L929 fibroblast (40,000/mL) in order to obtain 3D multicellular tumor spheroids (MCTS) resembling cellular heterogenicity of the neoplastic lesion. […] After one week, multicellular tumor spheroids were completely formed. Tumor spheroids were next used in different experimental procedures. We evaluated 2D flat surface inhibition of migration and growth, and the inhibition of 3D growth. For 2D flat surface migration and growth inhibition assays, the spheroids were placed on regular culture dishes and allowed to spread and grow in complete medium containing different compounds at 5 µM concentration. The areas of cell spreading were used as parameters for migration (red lines), while the areas of the spheroid core were used as parameters for 2D growth (yellow lines). For 3D growth inhibition, spheroids were placed on 2% agarose coated dishes in complete medium containing the different treatments at 5 µM concentration. Spheroid areas were analysed and compared to time 0 and used to evaluate the inhibition of 3D growth (yellow lines). Images of all spheroids were taken daily using the EVOS XL Core Imaging System with a 10x objective (Thermofisher Scientific, Waltham, MA, USA ). All images were analysed using the open-source software ImageJ (1.52a, National Institutes of Health, Bethesda, MD, USA)."}, "αvβ6 integrin": {"test_system": "αvβ6 integrin", "parameters": "method as in PMID 32634263", "conditions": "cited from earlier work"}, "αvβ3 integrin [6]": {"test_system": "αvβ3 integrin", "parameters": "method as in PMID 32634263", "conditions": "isolated integrin; cited from earlier work"}, "TGFβ-treated A549 cells": {"test_system": "TGFβ-treated A549 cells", "assay": "cells", "type": "cell-based, human", "conditions": "24 h", "experimental": "A549 cell viability was assessed using MTT (3-(4,5-dimethylthiazol-2-yl)-2,5-diphenyltetrazolium bromide) tetrazolium reduction assay (M5655, Sigma Aldrich, Milan, Italy), as described in [58]. Briefly, A549 cells were treated for 48 h in complete medium with TGFβ (10 ng/mL). Next, cells (2.5 × 10^3) were plated into 96-multiwell plates in 100 µL of complete medium. After adhesion, the compounds were added to the medium at different concentrations. After 24 h exposure, the medium was replaced with 100 µL MTT reagent in each well, and plates were incubated at 37 °C. After 2 h, MTT was removed, and the blue MTT–formazan product was solubilized with dimethyl sulfoxide (DMSO, Sigma Aldrich). The absorbance of the formazan solution was read at 595 nm using the microplate reader (Bio-Rad, Milan, Italy). Inhibition of cell proliferation was calculated by the IC50 calculator (AAT Bioquest, Inc., Pleasanton, CA, USA, https://www.aatbio.com/ (accessed on 1 July 2022))."}, "αvβ6 integrin receptor": {"test_system": "αvβ6 integrin receptor", "assay": "Expression of αvβ6 integrin by cytofluorimetric analysis", "type": "cell-based, human", "experimental": "(§4) Expression of αvβ6 integrins was determined by cytofluorimetric analysis. Human NSCLC A549 and H1975 cells, either grown in standard conditions or exposed to TGFβ treatment, were detached from the substrate using Accutase® to minimize the exposure of the extracellular membrane proteins to the enzymatic activity of trypsin. The cells were then incubated with primary antibodies, in the absence of membrane permeabilization. The cytofluorimetric procedures ensured quantification of the αvβ6 integrin receptor protruding outside the cells. […] These percentages increased to 66% of the parental population in A549 cells and to 55% in H1975, when the cells were exposed to TGFβ for 48 h (Figure 2B,D). […] In addition, we evaluated αvβ6 integrin expression on human melanoma cells (SSM2c, Figure S4A) and murine fibroblasts (L929, Figure S5A), whereas expression of the αvβ3 integrin receptor in these cells had been previously evaluated.\n(§5) A549, L929, and K562 cells were allowed to grow in standard conditions; in several experiments, A549 cells were grown in the presence or in the absence of recombinant human TGFβ (10 ng/mL) (#11343160 Immunotools Friesoythe Germany). […] After extensive washes using cytofluorimetric buffer, cells were analyzed using a BD FACSCanto™ flow cytometry system (BD Bioscience, Eysins, Switzerland)."}, "αvβ3 integrin [7]": {"test_system": "αvβ3 integrin", "assay": "Expression of αvβ3 integrin by cytofluorimetric analysis", "type": "cell-based, human", "experimental": "as §4\nas §5, with “Switzerland). […]” for “Switzerland).”"}, "human recombinant VEGFR2": {"target": "T1, human recombinant VEGFR2 (Homo sapiens, UniProt P35968)", "T1 construct": "purchased Eurofins (Cerep laboratories; KinaseProfiler, IC50 Profiler service)", "T1 sequence (P35968 20-1356)": "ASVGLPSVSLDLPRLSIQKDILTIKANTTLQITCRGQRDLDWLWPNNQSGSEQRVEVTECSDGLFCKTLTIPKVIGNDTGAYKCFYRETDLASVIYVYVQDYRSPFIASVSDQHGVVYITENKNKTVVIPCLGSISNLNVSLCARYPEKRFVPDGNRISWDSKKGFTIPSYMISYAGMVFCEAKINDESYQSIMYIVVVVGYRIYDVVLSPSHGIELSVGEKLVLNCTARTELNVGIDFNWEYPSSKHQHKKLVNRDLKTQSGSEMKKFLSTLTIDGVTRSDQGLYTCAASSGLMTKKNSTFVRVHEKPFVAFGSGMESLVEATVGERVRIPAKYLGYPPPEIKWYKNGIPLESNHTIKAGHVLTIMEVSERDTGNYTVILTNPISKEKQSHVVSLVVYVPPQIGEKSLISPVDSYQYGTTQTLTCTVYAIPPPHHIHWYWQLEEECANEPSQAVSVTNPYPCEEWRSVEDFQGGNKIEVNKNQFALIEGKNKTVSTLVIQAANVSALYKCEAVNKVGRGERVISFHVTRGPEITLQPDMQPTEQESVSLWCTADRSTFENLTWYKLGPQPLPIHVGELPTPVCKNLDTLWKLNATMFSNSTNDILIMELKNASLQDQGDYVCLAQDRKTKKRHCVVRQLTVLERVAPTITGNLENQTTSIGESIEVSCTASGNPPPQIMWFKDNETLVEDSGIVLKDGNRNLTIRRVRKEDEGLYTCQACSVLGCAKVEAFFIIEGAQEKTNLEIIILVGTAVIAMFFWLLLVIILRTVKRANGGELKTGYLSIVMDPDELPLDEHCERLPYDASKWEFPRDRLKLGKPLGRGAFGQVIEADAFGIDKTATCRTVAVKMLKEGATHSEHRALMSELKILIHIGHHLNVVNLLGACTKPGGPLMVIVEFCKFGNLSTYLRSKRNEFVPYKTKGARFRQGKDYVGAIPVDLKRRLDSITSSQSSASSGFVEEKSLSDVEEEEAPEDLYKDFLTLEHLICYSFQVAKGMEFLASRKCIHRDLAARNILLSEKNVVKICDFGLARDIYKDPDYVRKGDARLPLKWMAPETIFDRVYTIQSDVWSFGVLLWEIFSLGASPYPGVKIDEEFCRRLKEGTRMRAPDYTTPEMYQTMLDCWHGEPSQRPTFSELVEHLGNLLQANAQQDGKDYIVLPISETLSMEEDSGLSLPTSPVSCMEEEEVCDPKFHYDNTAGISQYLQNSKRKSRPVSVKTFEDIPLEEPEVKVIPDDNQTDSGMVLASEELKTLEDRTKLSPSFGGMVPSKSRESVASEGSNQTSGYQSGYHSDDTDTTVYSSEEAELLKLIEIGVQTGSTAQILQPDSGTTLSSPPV", "assay": "VEGFR2 tyrosine kinase inhibition, radiometric (Eurofins)", "type": "biochemical", "conditions": "nine-point concentration-response curve, radiometric detection; read-out: IC50, inhibition of VEGFR2 phosphorylation", "experimental": "Inhibition of receptor phosphorylation was measured by a radiometric detection method. IC50 values were determined from a nine-point concentration−response curve generated using the standard assay conditions for the target."}}, "note": "Entries after “also recorded” stand apart in the source; their conditions may differ."}
{"compound": "c(AmpLRGDL) [compound 4]", "values": [{"measurement": "level of inhibition of cell adhesion to fibronectin", "setting": "A549 cells [1]; even TGFβ-treated, all concentrations tested", "value": "≤ 50", "unit": "%"}, {"measurement": "inhibition of cell adhesion to fibronectin (in words)", "setting": "A549 cells [1]; untreated and TGFβ-treated, increasing concentrations", "value": "weak concentration dependence"}, {"measurement": "inhibition of cell adhesion to fibronectin (in words)", "setting": "H1975 cells", "value": "weak concentration-dependence"}, {"measurement": "inhibition of cell adhesion to vitronectin", "setting": "A549 cells [2]", "value": "not inhibited"}, {"measurement": "α-SMA protein expression", "setting": "[3]", "value": "not able to affect"}, {"measurement": "inhibition of 3D spheroid growth", "setting": "[4]", "value": "did not induce a significant reduction; also recorded: transient reduction"}, {"measurement": "2D flat surface migration of tumor spheroids", "setting": "[5]", "value": "did not inhibit cell growth and migration; also recorded: considerably weaker effect"}, {"measurement": "2D growth of tumor spheroids (spheroid core)", "setting": "[5]", "value": "did not inhibit cell growth and migration; also recorded: very weak inhibition"}, {"measurement": "IC50", "setting": "αvβ6 integrin; isolated integrin", "value": "8.3 ± 0.4", "unit": "nM"}, {"measurement": "selectivity IC50(αvβ3)/IC50(αvβ6)", "setting": "αvβ6 integrin; isolated integrins", "value": 255}, {"measurement": "IC50", "setting": "αvβ3 integrin [6]", "value": "2120 ± 266", "unit": "nM"}]}
{"compound": "COC(=O)c1ccc2c(c1)NC(=O)/C2=C(\\Nc1ccc(N(C)C(=O)CN2CCN(CCOCCOCCOCc3cn(CCCCCC(=O)N4C[C@@H]5C[C@H]4C(=O)N[C@@H](CC(C)C)C(=O)N[C@@H](CCCNC(=N)N)C(=O)NCC(=O)N[C@@H](CC(=O)O)C(=O)N[C@@H](CC(C)C)C(=O)N5)nn3)CC2)cc1)c1ccccc1", "note": "[compound 2]", "values": [{"measurement": "IC50", "setting": "TGFβ-treated A549 cells", "value": 10100, "unit": "nM"}]}
{"compound": "TGFβ: recombinant human TGFβ (10 ng/mL) used to induce EMT and αvβ6 expression", "values": [{"measurement": "cell population expressing αvβ6 integrin receptor", "setting": "αvβ6 integrin receptor; A549 cells exposed to TGFβ (10 ng/mL) for 48 h", "value": 66, "unit": "%"}, {"measurement": "cell population expressing αvβ6 integrin receptor", "setting": "αvβ6 integrin receptor; H1975 cells exposed to TGFβ (10 ng/mL) for 48 h", "value": 55, "unit": "%"}, {"measurement": "αvβ3 integrin expression", "setting": "αvβ3 integrin [7]; A549 cells exposed to TGFβ (10 ng/mL) 48 h, 72% without TGFβ", "value": 32, "unit": "%"}, {"measurement": "αvβ3 integrin expression", "setting": "αvβ3 integrin [7]; H1975 cells, unaffected by TGFβ treatment", "value": 98, "unit": "%"}]}
{"compound": "COC(=O)c1ccc2c(c1)NC(=O)/C2=C(\\Nc1ccc(N(C)C(=O)CN2CCN(CCCCNC(=O)CCc3cn(CCCCCC(=O)N4C[C@@H]5C[C@H]4C(=O)N[C@@H](CC(C)C)C(=O)N[C@@H](CCCNC(=N)N)C(=O)NCC(=O)N[C@@H](CC(=O)O)C(=O)N[C@@H](CC(C)C)C(=O)N5)nn3)CC2)cc1)c1ccccc1", "note": "[compound 1]", "values": [{"measurement": "IC50", "setting": "human recombinant VEGFR2", "value": 6, "unit": "nM"}, {"measurement": "IC50", "setting": "TGFβ-treated A549 cells", "value": 9500, "unit": "nM"}]}
